Reference: US4188398A, “Method for treating epilepsy” (priority 1978, dated 1980)
“Also recorded” adds a separate entry of the source.

How the values were obtained:
[1] = Other pharmacological properties (vegetative nervous system, blood pressure, breathing, neuromuscular conduction); assay type: in vivo; conditions: intraperitoneally or per os
[2] = Single versus multiple administration, antagonism to corazol (addiction / habit forming); assay type: in vivo
[3] = Duration of Nembutal-induced sleep; assay type: in vivo; conditions: P = 0.05; Nembutal 40 mg/kg; proposed preparation 100 mg/kg, zarontin 150 mg/kg, milontin 100 mg/kg
Text: (§1) Nembutal was used as a trunk narcotic, and urethane as a cortical narcotic.

[4] = Arecoline tremor test; parameters: species or system mice and rats; conditions: in vivo
[5] = animal or person
Protocol: The general effect of the proposed preparation was tested on white mice, rats and rabbits.

[6] = system: actinomyces; assay: Mutagenicity, Air-Shibalsky technique, actinomyces; assay type: cell-based
[7] = system: Bacillus coli; assay type: cell-based
[8] = Duration of urethane-induced sleep; assay type: in vivo
Text: as §1

[9] = Acute toxicity, single intraperitoneal administration, 48 hours (Litchfield and Wilcockson); assay type: in vivo, white mice
Protocol: The acute toxicity of the proposed preparation was tested on white mice weighing 19 to 20 g, by single intraperitoneal administrations of 1.5- and 10-percent colloidal solutions of the anticonvulsant in a 0.5-percent solution of carboxymethyl cellulose. The animals were observed during 48 hours. In order to establish the median lethal dose (LD50), the experimental data was statistically processed using the Litchfield and Wilcockson techniques. Milontin and zarontin were analyzed in the same way.

[10] = Corazol convulsion test
Protocol: (§5) The anticonvulsant action of the proposed preparation was tested on mice weighing 19 to 25 g and rats weighing 120 to 150 g by conducting maximum electroshock, corazol, strychnine, camphor, nicotine and arecoline tests.

[11] = Duration of activity, maximum electroshock test; assay type: in vivo, white mice
Protocol: (§2) Corazol convulsions and maximum electroshock tests were carried out to determine the duration of the preparation's activity. Two series of experiments were made on white mice weighing 20 to 25 g. In the first series, the preparation was introduced intraperitoneally, whereas in the second series it was introduced into the stomach through a metal probe.
(§3) The anticonvulsive action of effective doses of the proposed preparation (200 mg/kg were introduced intraperitoneally, and 400 mg/kg were introduced per os) was tested every 30 minutes on separate groups of mice, each including 100 animals. The tests were continued until complete termination of the anticonvulsive effect.

[12] = Camphor convulsions test
Protocol: as §5

[13] = Neurotoxicity: rightening, gait, stance, muscle tone and equilibrium tests; assay type: in vivo; conditions: P = 0.05
Protocol: The neurotoxicity levels were determined by conducting rightening, gait, stance, muscle tone and equilibrium tests.

[14] = General effect on behaviour of rabbits; assay type: in vivo; conditions: 500 to 600 mg/kg
[15] = system: lysin locus of actinomyces; assay: Mutagenicity, lysin locus of actinomyces; assay type: cell-based; conditions: same doses
[16] = Duration of activity, corazol test; assay type: in vivo, white mice
Protocol: as §2, §3

[17] = Daily administration for eight weeks, rats (chronic toxicity); assay type: in vivo; conditions: 400 mg/kg per os once a day
Protocol: The effects of daily administrations of the proposed anticonvulsant, carried out over prolonged periods of time, were studied on rabbits and rats.
A colloidal solution of the proposed antispasmodic was administered per os in doses of 400 mg/kg to six rats. The drug was introduced through a metal probe once a day for eight weeks.
Every day the animals' weight and body temperature were measured, and their general state was assessed. Once a week, a general blood analysis was made, the urine was analyzed for protein, blood and biliary pigments. Upon the end of the experiment, the animals were killed (the rabbits were destroyed by air embolism; the rats were decapitated). The liver, heart, kidneys, spleen, lungs and different parts of the small intestine and stomach of the freshly killed animals were taken for pathomorphological investigation.

[18] = system: threonine locus of Bacillus coli; assay: Mutagenicity, threonine locus of Bacillus coli; assay type: cell-based; conditions: 0.2-mole concentration, 24 hours
Protocol: (§4) The preparation was further studied with regard to the threonine locus of Bacillus coli at a 0.2-mole concentration; the object was subjected to treatment during 24 hours; the survival rate of the cells was between 42 and 91 percent.

[19] = Mutagenicity, threonine locus of Bacillus coli; assay type: cell-based; conditions: bacillus coli, 0.2-mole concentration
Protocol: as §4

[20] = Electroencephalographic study of threshold and afteraction discharges, curarized animals; assay type: in vivo, cats and rabbits; conditions: 150 to 200 mg/kg
Protocol: The central action of the preparation was studied electroencephalographically. The acute experiments were conducted on curarized cats and rabbits and were aimed at investigating the effects of the preparation upon the threshold magnitude and the duration of afteraction discharges of the dorsal hippocamp, […] nuclei of the thalamus and the motor zone of the cortex.

[21] = Teratogenic and embryotoxic tests (A. M. Chernukh's method); assay type: in vivo, mongrel white female rats; conditions: 400 mg/kg per os, rats
Protocol: Teratogenic and embryotoxic tests of the proposed preparation were carried out by using A. M. Chernukh's method on 35 mongrel white female rats weighing 150 to 200 g. The preparation was introduced per os in a dose of 400 mg/kg.
On the twentieth day of pregnancy, all the animals were decapitated.

[22] = Nicotine-induced convulsions; assay type: in vivo, mice
Protocol: as §5

[23] = corazol, 200 mg/kg intraperitoneally

CC(C)Oc1ccc(C2CC(=O)NC2=O)cc1 (stereo not drawn) [proposed preparation, α-/para-isopropoxyphenyl/succinimide]
blood pressure, breathing and neuromuscular conduction [1]: no changes are observed in the blood pressure, breathing and neuromuscular conduction
effect on the vegetative nervous system [1]: no effect upon the vegetative nervous system
habit forming properties [2]: devoid of habit forming properties
Average Duration of Nembutal-Induced Sleep [3]: 99 ± 67.6 min
effect on arecoline tremor [4]: does not hinder the development of arecoline tremor
minimal effective dose ([5]; Mus musculus, ip, read-out: least dose to produce a noticeable effect on the animals' behavior): 200 mg/kg
effect on general state of the animals per os versus intraperitoneal ([5]; per os, animals (mice, rats, rabbits)): not as marked as in the case of intraperitoneal administration
dose inducing lying position and sleep ([5]; white mice, intraperitoneal): more than 1,000 milligrams per kilogram of weight
mutagenous effect [6]: no mutagenous effect
mutagenous effect [7]: no mutagenous effect
Average Duration of Urethane-Induced Sleep ([8]; P = 0.05, urethane 1,000 mg/kg, proposed preparation 100 mg/kg, zarontin 150 mg/kg, milontin 100 mg/kg): 3.2 ± 1.3 min
effect upon the duration of urethane-induced sleep ([8]; in words): no effect upon the duration of urethane-induced sleep
relative toxicity ([9]; compared with milontin and zarontin): the least toxic of all; also recorded: more than two times less toxic than milontin; also recorded: one and half times less toxic than zarontin
LD50 ([9]; intraperitoneal, white mice, P=0.05, 2880 min, listed as Preparation in accordance with invention): 2,150 (1,930 to 2,390) mg/kg
LD50 at 48 h ([9]; mouse, in vivo, ip, intraperitoneal, white mice, P=0.05): 2150 mg/kg
ED50 ([10]; Mus musculus, read-out: ED50 (corazol)): 86 mg/kg
protection index I=TD50/ED50, Corazol ([10]; corazol): 8.38
protection index PI (mean lethal dose / mean effective dose), Corazol ([10]; corazol): 25
time for which effect is maintained at its peak ([11]; maximum electroshock): seven
duration of effect, oral versus intraperitoneal ([11]; maximum electroshock test): lasts longer in the case of oral administration
ED50 ([12]; Mus musculus, read-out: ED50 (camphor)): 90 mg/kg
protection index I=TD50/ED50, Camphor ([12]; camphor): 8
protection index PI (mean lethal dose / mean effective dose), Camphor ([12]; camphor): 23.9
TD50 (mean neurotoxic dose) ([13]; listed as Preparation according to invention): 720(588 to 883) mg/kg
TD50 ([13]; in vivo, read-out: TD50 (mean neurotoxic dose)): 720 mg/kg
effect on behaviour of rabbits [14]: no conspicuous changes in the behaviour
antistrychnine effect, ranking of the three drugs (in words): the most pronounced
ED50 (strychnine) (strychnine): 110 mg/kg
protection index I=TD50/ED50, Strychnine (strychnine): 6.55
protection index PI (mean lethal dose / mean effective dose), Strychnine (strychnine): 19.55
mutagenous effect [15]: weak mutagenous effect
revertants induced [15]: no more than 41 revertants
revertants relative to control [15]: thrice as great as that of the control
duration of effect, oral versus intraperitoneal ([16]; corazol test): lasts longer in the case of oral administration
time after which effect totally disappears [16, 23]: three
time of maximum anticonvulsive effect [16, 23]: 60 min
time after which activity is gradually brought down ([16]; corazol, 400 mg/kg per os): six
time after which effect totally disappears ([16]; corazol, 400 mg/kg per os): about eight
time for which maximum level is maintained ([16]; corazol, 400 mg/kg per os): four and a half
time of maximum anticonvulsive effect ([16]; corazol, 400 mg/kg per os): 90 min
organ changes, macroscopic and microscopic histochemical investigation [17]: no changes were observed
weight, body temperature, general state, blood and urine composition [17]: no changes were registered in the weight, body temperature and general state of the animals
genetic action [18]: extremely weak genetic action
revertants induced [18]: no more than 17 revertants
fold induction at 24 h, 200000 µM ([19]; read-out: revertants relative to control (spontaneous mutation)): 1.8
viability at 24 h, 200000 µM ([19]; read-out: survival rate of the cells): 42 to 91%
afteraction discharges of the thalamic nuclei [20]: prevented afteraction discharges of the thalamic nuclei
convulsion threshold of the hippocamp [20]: slightly raised the convulsion threshold of the hippocamp
period of discharges in the cortex [20]: considerably reduces the period of discharges in the cortex
spread of convulsive activity to other brain structures [20]: prevents the spread of the convulsive activity to other brain structures
stimulation threshold of the motor zone of the cortex [20]: does not raise the stimulation threshold of the motor zone of the cortex
development of pregnancy [21]: the pregnancy developed normally
abnormalities in embryos' growth, internal organs and skeletons ([21]; twentieth day of pregnancy): did not reveal any abnormalities in their growth
effect on intensity of nicotine-induced convulsions ([22]; 200 mg/kg, mice): markedly reduced the intensity of convulsions
effect on nicotine-induced convulsions and tremor ([22]; 300 mg/kg): effectively prevents convulsions and tremor
ED50 ([22]; Mus musculus): 190 mg/kg
